Measured values reported in the supplement of paper PMC10307832.

Experiments:
Experiment in all cases: relative viability (nuclei count vs DMSO), 5 days (fraction); higher = more cells survive
LCLC-103H = tested on: LCLC-103H
Outline: (§1)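 Nuclei were stained with Hoechst during a one-step fixation (final 0.05% Triton X-100, 1% formaldehyde, 1 ug/ml Hoechst) carried out 5 days after dosing, then counted on 4× images. The cells, lung cancer lines in 1536-well plates, had been dosed by pin tool the day after seeding with one drug alone or a fixed anchor-drug dose plus five library-drug doses (not always all listed) in √10 steps. Relative viability is the nuclei count in treated wells divided by that in vehicle wells, and each value is the median of duplicate plates.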

PC-14 = tested on: PC-14
Outline: as §1

NCI-H596 = tested on: NCI-H596
Outline: as §1

H3255 = tested on: H3255
Outline: as §1

NCI-H727 = tested on: NCI-H727
Outline: as §1

LU99A = tested on: LU99A
Outline: as §1

NCI-H2228 = tested on: NCI-H2228
Outline: as §1

NCI-H23 = tested on: NCI-H23
Outline: as §1

LC-2-ad = tested on: LC-2-ad
Outline: as §1

NCI-H1563 = tested on: NCI-H1563
Outline: as §1

NCI-H1650 = tested on: NCI-H1650
Outline: as §1

201T = tested on: 201T
Outline: as §1

NCI-H460 = tested on: NCI-H460
Outline: as §1

NCI-H2347 = tested on: NCI-H2347
Outline: as §1

PC-3 [JPC-3] = tested on: PC-3 [JPC-3]
Outline: as §1

A-427 = tested on: A-427
Outline: as §1

LCLC-97TM1 = tested on: LCLC-97TM1
Outline: as §1

HCC-44 = tested on: HCC-44
Outline: as §1

SW 1573 = tested on: SW 1573
Outline: as §1

LK-2 = tested on: LK-2
Outline: as §1

COR-L23 = tested on: COR-L23
Outline: as §1

CCN(CC)CCCCNc1ncc2cc(-c3cc(OC)cc(OC)c3)c(NC(=O)NC(C)(C)C)nc2n1 + C[C@@H](Oc1cc(-c2cnn(C3CCNCC3)c2)cnc1N)c1c(Cl)ccc(F)c1Cl [Crizotinib] (partner 1 µM)
relative viability (LCLC-103H; first compound 0.01 µM): 1.11 | relative viability (LCLC-103H; first compound 0.03162 µM): 1.04 | relative viability (LCLC-103H; first compound 0.1 µM): 1.07 | relative viability (LCLC-103H; first compound 0.3162 µM): 1.05 | relative viability (LCLC-103H; first compound 1 µM): 1.05 | relative viability (PC-14; first compound 0.01 µM): 0.916 | relative viability (PC-14; first compound 0.03162 µM): 0.875 | relative viability (PC-14; first compound 0.1 µM): 1.02 | relative viability (PC-14; first compound 0.3162 µM): 1.06 | relative viability (PC-14; first compound 1 µM): 0.904 | relative viability (NCI-H596; first compound 0.01 µM): 0.918 | relative viability (NCI-H596; first compound 0.03162 µM): 1.04 | relative viability (NCI-H596; first compound 0.1 µM): 1.02 | relative viability (NCI-H596; first compound 0.3162 µM): 0.956 | relative viability (NCI-H596; first compound 1 µM): 0.894 | relative viability (H3255; first compound 0.01 µM): 0.936 | relative viability (H3255; first compound 0.03162 µM): 0.885 | relative viability (H3255; first compound 0.1 µM): 1.14 | relative viability (H3255; first compound 0.3162 µM): 1.01 | relative viability (H3255; first compound 1 µM): 0.843 | relative viability (NCI-H727; first compound 0.01 µM): 0.829 | relative viability (NCI-H727; first compound 0.03162 µM): 0.923 | relative viability (NCI-H727; first compound 0.1 µM): 1.03 | relative viability (NCI-H727; first compound 0.3162 µM): 1.06 | relative viability (NCI-H727; first compound 1 µM): 0.837 | relative viability (LU99A; first compound 0.01 µM): 0.547 | relative viability (LU99A; first compound 0.03162 µM): 0.63 | relative viability (LU99A; first compound 0.1 µM): 0.616 | relative viability (LU99A; first compound 0.3162 µM): 0.583 | relative viability (LU99A; first compound 1 µM): 0.484 | relative viability (NCI-H2228; first compound 0.01 µM): 0.408 | relative viability (NCI-H2228; first compound 0.03162 µM): 0.564 | relative viability (NCI-H2228; first compound 0.1 µM): 0.348 | relative viability (NCI-H2228; first compound 0.3162 µM): 0.358 | relative viability (NCI-H2228; first compound 1 µM): 0.243 | relative viability (NCI-H23; first compound 0.01 µM): 0.537 | relative viability (NCI-H23; first compound 0.03162 µM): 0.568 | relative viability (NCI-H23; first compound 0.1 µM): 0.496 | relative viability (NCI-H23; first compound 0.3162 µM): 0.536 | relative viability (NCI-H23; first compound 1 µM): 0.511 | relative viability (LC-2-ad; first compound 0.01 µM): 0.834 | relative viability (LC-2-ad; first compound 0.03162 µM): 0.503 | relative viability (LC-2-ad; first compound 0.1 µM): 0.49 | relative viability (LC-2-ad; first compound 0.3162 µM): 0.488 | relative viability (LC-2-ad; first compound 1 µM): 0.39 | relative viability (NCI-H1563; first compound 0.01 µM): 0.86 | relative viability (NCI-H1563; first compound 0.03162 µM): 0.836 | relative viability (NCI-H1563; first compound 0.1 µM): 0.816 | relative viability (NCI-H1563; first compound 0.3162 µM): 0.833 | relative viability (NCI-H1563; first compound 1 µM): 0.623 | relative viability (NCI-H1650; first compound 0.01 µM): 1.03 | relative viability (NCI-H1650; first compound 0.03162 µM): 0.989 | relative viability (NCI-H1650; first compound 0.1 µM): 0.902 | relative viability (NCI-H1650; first compound 0.3162 µM): 1.02 | relative viability (NCI-H1650; first compound 1 µM): 0.698 | relative viability (201T; first compound 0.01 µM): 1.06 | relative viability (201T; first compound 0.03162 µM): 1.09 | relative viability (201T; first compound 0.1 µM): 1.06 | relative viability (201T; first compound 0.3162 µM): 1.05 | relative viability (201T; first compound 1 µM): 1.03 | relative viability (NCI-H460; first compound 0.01 µM): 1.15 | relative viability (NCI-H460; first compound 0.03162 µM): 0.934 | relative viability (NCI-H460; first compound 0.1 µM): 1.36 | relative viability (NCI-H460; first compound 0.3162 µM): 1.07 | relative viability (NCI-H460; first compound 1 µM): 0.797 | relative viability (NCI-H2347; first compound 0.01 µM): 0.766 | relative viability (NCI-H2347; first compound 0.03162 µM): 0.62 | relative viability (NCI-H2347; first compound 0.1 µM): 0.677 | relative viability (NCI-H2347; first compound 0.3162 µM): 0.63 | relative viability (NCI-H2347; first compound 1 µM): 0.793 | relative viability (PC-3 [JPC-3]; first compound 0.01 µM): 1 | relative viability (PC-3 [JPC-3]; first compound 0.03162 µM): 1.01 | relative viability (PC-3 [JPC-3]; first compound 0.1 µM): 1.04 | relative viability (PC-3 [JPC-3]; first compound 0.3162 µM): 1.04 | relative viability (PC-3 [JPC-3]; first compound 1 µM): 0.889 | relative viability (A-427; first compound 0.01 µM): 0.886 | relative viability (A-427; first compound 0.03162 µM): 0.812 | relative viability (A-427; first compound 0.1 µM): 0.875 | relative viability (A-427; first compound 0.3162 µM): 0.909 | relative viability (A-427; first compound 1 µM): 0.727 | relative viability (LCLC-97TM1; first compound 0.03162 µM): 0.45 | relative viability (LCLC-97TM1; first compound 0.1 µM): 0.373 | relative viability (LCLC-97TM1; first compound 0.3162 µM): 0.396 | relative viability (LCLC-97TM1; first compound 1 µM): 0.326 | relative viability (HCC-44; first compound 0.01 µM): 0.775 | relative viability (HCC-44; first compound 0.03162 µM): 0.855 | relative viability (HCC-44; first compound 0.1 µM): 0.853 | relative viability (HCC-44; first compound 0.3162 µM): 0.971 | relative viability (HCC-44; first compound 1 µM): 0.946 | relative viability (SW 1573; first compound 0.01 µM): 0.69 | relative viability (SW 1573; first compound 0.03162 µM): 0.813 | relative viability (SW 1573; first compound 0.1 µM): 1.05 | relative viability (SW 1573; first compound 0.3162 µM): 0.774 | relative viability (SW 1573; first compound 1 µM): 0.722 | relative viability (LK-2; first compound 0.01 µM): 0.235 | relative viability (LK-2; first compound 0.03162 µM): 0.25 | relative viability (LK-2; first compound 0.1 µM): 0.231 | relative viability (LK-2; first compound 0.3162 µM): 0.246 | relative viability (LK-2; first compound 1 µM): 0.258 | relative viability (COR-L23; first compound 0.01 µM): 0.697 | relative viability (COR-L23; first compound 0.03162 µM): 0.656 | relative viability (COR-L23; first compound 0.1 µM): 0.824 | relative viability (COR-L23; first compound 0.3162 µM): 0.584 | relative viability (COR-L23; first compound 1 µM): 0.759
